In US20230026163A1, “ANTICANCER COMPOUND AND MEDICAL USE THEREOF” (ASCENTAWITS PHARMACEUTICALS, LTD., priority 2019, published 2023):

Key:
[1] = tested on: GA6201 tumor of HuPrime® model; experiment: PDX model, subcutaneously transplanted human gastric cancer; assay type: in vivo, BALB/c nude mice; conditions: for Tumor volume: ifosfamide 60 mg/kg i.p., compound 01 5-50 mg/kg
Procedure: BALB/c nude mice were subcutaneously inoculated with GA6201 tumor of HuPrime® model to establish a subcutaneously transplanted tumor model of human gastric cancer. The experiment was divided into a vehicle control group 1 with normal saline (pH 7.0-7.6), a control group 2 with ifosfamide (60 mg/kg), and an Experimental group (Exp. group) with compound 01 (5-50 mg/kg), and 5 mice per group.
The Exp. group with compound 01 (5-50 mg/kg) was administered by intraperitoneal injection for 5 consecutive days and stopped for 2 days a week, and administered for 2 weeks. Then, the dose was changed to 10 mg/kg by intraperitoneal injection, administered daily for 4 days. After that, the dose and administration method were changed. The dose was 20 mg/kg by tail vein injection for 1 day. After 10 days of drug withdrawal, the dose was changed again. The dose was 50 mg/kg by tail vein injection, once a week, for 2 weeks, and one week of observation. […] The safety was evaluated according to the changes in animal body weight and death.
The tumor volume of each group of mice was measured on different days, and the average value was obtained.

Plasma stability, rat = assay type: in vitro ADME
Procedure: (§1) Frozen plasma was melted immediately in a water bath at 37° C. […] The supernatants were collected into new tubes, respectively. pH values of the plasma were checked and recorded. Note: a, no more 2 times melted plasma was used since the sample was received; b, the plasma in pH 7 to pH 8 was used.
(§2) 1 mM of working solution of the test compounds and the control compound, propantheline, were prepared in DMSO. 1 mM of working solution of the control compound in […] was prepared in acetonitrile. 4 μL of the working solutions were added to 796 μL of pre-incubated plasma respectively to achieve a final concentration of 5 μM. The final concentration of solvent was 0.5%.
(§3) […] The test was performed in duplicate. […] 50 μL of the labeled plasma was added to new tubes containing 300 μL of the quench solution of room temperature, i.e., the sample with a preparation time of 0. The samples were vortexed to mix for 5 minutes. […] 100 μL of the supernatant was transferred to new plates.

P-glycoprotein = P-glycoprotein (Homo sapiens, UniProt P08183); experiment: in vitro
H460 = experiment: Cytotoxicity on cell lines of different species: H460; assay type: cell-based; conditions: NCI-H460, 72 h; H460, Human; exposure time: 3 days
Plasma stability, dog = assay type: in vitro ADME
Procedure: as §1, §2, §3

AA8 = experiment: Cytotoxicity on cell lines of different species: AA8; assay type: cell-based

P-glycoprotein, sequence (P08183 whole entry): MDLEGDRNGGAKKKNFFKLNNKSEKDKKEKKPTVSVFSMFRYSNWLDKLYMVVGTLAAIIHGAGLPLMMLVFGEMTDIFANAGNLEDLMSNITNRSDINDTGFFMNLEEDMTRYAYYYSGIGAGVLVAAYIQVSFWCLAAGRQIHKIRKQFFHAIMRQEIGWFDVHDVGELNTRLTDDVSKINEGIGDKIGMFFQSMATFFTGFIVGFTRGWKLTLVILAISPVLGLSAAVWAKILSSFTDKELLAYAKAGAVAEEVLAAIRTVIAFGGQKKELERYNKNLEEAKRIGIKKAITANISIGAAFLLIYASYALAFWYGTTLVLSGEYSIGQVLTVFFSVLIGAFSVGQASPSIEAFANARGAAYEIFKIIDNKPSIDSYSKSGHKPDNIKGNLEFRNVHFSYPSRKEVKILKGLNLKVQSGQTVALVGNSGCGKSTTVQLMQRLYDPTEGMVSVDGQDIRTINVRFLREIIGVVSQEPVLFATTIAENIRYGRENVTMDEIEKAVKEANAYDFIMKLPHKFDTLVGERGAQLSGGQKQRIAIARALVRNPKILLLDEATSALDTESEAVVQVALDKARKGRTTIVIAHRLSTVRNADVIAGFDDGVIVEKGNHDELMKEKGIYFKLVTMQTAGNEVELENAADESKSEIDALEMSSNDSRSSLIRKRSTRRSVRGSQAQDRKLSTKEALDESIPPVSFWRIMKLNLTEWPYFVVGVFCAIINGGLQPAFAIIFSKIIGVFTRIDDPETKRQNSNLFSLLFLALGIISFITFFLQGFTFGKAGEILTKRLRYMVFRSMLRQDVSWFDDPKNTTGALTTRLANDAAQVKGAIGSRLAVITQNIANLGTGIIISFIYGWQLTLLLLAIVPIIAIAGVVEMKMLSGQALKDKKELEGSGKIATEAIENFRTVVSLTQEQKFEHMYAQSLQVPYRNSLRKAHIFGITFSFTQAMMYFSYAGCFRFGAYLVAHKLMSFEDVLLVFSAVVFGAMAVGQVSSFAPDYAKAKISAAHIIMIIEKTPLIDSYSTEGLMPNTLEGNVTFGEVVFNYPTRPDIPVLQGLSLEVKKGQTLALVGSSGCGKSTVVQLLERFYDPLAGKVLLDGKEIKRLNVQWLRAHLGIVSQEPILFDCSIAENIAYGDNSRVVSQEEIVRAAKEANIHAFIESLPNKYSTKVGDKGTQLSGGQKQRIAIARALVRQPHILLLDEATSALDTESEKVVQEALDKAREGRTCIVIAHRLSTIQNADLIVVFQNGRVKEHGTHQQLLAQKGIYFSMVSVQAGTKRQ

For `O=[N+]([O-])c1ccc(C(OP(=O)(N2CC2)N2CC2)C(F)(F)F)c2ccccc12` (stereo not drawn) [Compound 01], which “Inhibition of tumor growth compared with ifosfamide (conclusion)” value ([1]; GA6201 PDX) is on record?
The value was “obvious advantages in inhibiting tumor growth”.

What about the Tumor volume ([1]; day 0) of the same compound?
The Tumor volume was 94.24 mm^3.

And the Tumor volume ([1]; day 3)?
The Tumor volume was 121.79 mm^3.

And the Tumor volume ([1]; day 7)?
The Tumor volume was 123.19 mm^3.

What about the Tumor volume ([1]; day 10) of the same compound?
Its Tumor volume is 153.46 mm^3.

What about the Tumor volume ([1]; day 14) of the same compound?
Its Tumor volume is 191.17 mm^3.

And the Tumor volume ([1]; day 17)?
Its Tumor volume is 219.91 mm^3.

What about the Tumor volume ([1]; day 21) of the same compound?
Its Tumor volume is 246.57 mm^3.

What about the Tumor volume ([1]; day 24) of the same compound?
The Tumor volume was 271.72 mm^3.

What about the Tumor volume ([1]; day 28) of the same compound?
Its Tumor volume is 280.86 mm^3.

And the Tumor volume ([1]; day 31)?
The Tumor volume was 270.68 mm^3.

What about the Tumor volume ([1]; day 35) of the same compound?
Its Tumor volume is 299.31 mm^3.

And the Tumor volume ([1]; day 38)?
Its Tumor volume is 277.17 mm^3.

What about the Tumor volume ([1]; day 42) of the same compound?
Its Tumor volume is 300.46 mm^3.

And the Tumor volume ([1]; day 45)?
The Tumor volume was 342.08 mm^3.

And the Tumor volume ([1]; day 49)?
The Tumor volume was 287.47 mm^3.

What about the Remaining percentage (Plasma stability, rat; Rat plasma, 5 μM, 37° C., after 30 minutes) of the same compound?
The Remaining percentage was 52.11%.

And the “Stability in plasma (conclusion)” value (Plasma stability, rat; rat)?
The value was “relatively unstable”.

What about the Papp A→B at 2 h (P-glycoprotein; dog, MDCK-MDR1) of the same compound?
The Papp A→B at 2 h was 18.6 ×10⁻⁶ cm/s.

What about the Papp B→A at 2 h (P-glycoprotein; dog, MDCK-MDR1) of the same compound?
Its Papp B→A at 2 h is 11.9 ×10⁻⁶ cm/s.

And the recovery at 2 h (P-glycoprotein; dog, MDCK-MDR1, Recovery (%) AP-BL, Verapamil 0 μM)?
The recovery at 2 h was 58.6%.

What about the recovery at 2 h (P-glycoprotein; dog, MDCK-MDR1, Recovery (%) AP-BL, Verapamil 100 μM) of the same compound?
Its recovery at 2 h is 63.4%.

What about the recovery at 2 h (P-glycoprotein; dog, MDCK-MDR1, Recovery (%) BL-AP, Verapamil 0 μM) of the same compound?
The recovery at 2 h was 58.6%.

What about the recovery at 2 h (P-glycoprotein; dog, MDCK-MDR1, Recovery (%) BL-AP, Verapamil 100 μM) of the same compound?
Its recovery at 2 h is 67.3%.

What about the “P-glycoprotein substrate (experimental conclusion)” value (P-glycoprotein; with vs without Verapamil) of the same compound?
Its value is “not P-glycoprotein substrates”.

What about the IC50 (H460) of the same compound?
The IC50 was 0.1 µM.

What about the Remaining percentage (Plasma stability, dog; Dog plasma, 5 μM, 37° C., after 30 minutes) of the same compound?
Its Remaining percentage is 85.04%.

And the “Stability in plasma (conclusion)” value (Plasma stability, dog; dog)?
The value was “relatively stable”.

And the IC50 (AA8; CHO-AA8, 72 h, AA8, Rat, exposure time: 3 days)?
Its IC50 is 11 µM.

And the “Multiple: Rat/Human” value (AA8; IC50 AA8 / IC50 H460)?
Its value is 110.
